Measured values as given in ChEMBL document CHEMBL1156792, “Application of the dipeptidyl peptidase IV (DPPIV/CD26) based prodrug approach to different amine-containing drugs” (J Med Chem, 2010).
Peptide text beside a SMILES is read from it. * marks the point of attachment. X2 = OC[C@H]1O[C@@H](n2cnc3c(N*)ncnc32)[C@@H](O)[C@@H]1O

Target: Dipeptidyl peptidase 4 (Homo sapiens) (UniProt P27487)
Assay: Ratio of Vmax/Km for human recombinant CD26 assessed as hydrolysis

Sequence of Dipeptidyl peptidase 4 (Homo sapiens) (P27487 whole entry, looked up): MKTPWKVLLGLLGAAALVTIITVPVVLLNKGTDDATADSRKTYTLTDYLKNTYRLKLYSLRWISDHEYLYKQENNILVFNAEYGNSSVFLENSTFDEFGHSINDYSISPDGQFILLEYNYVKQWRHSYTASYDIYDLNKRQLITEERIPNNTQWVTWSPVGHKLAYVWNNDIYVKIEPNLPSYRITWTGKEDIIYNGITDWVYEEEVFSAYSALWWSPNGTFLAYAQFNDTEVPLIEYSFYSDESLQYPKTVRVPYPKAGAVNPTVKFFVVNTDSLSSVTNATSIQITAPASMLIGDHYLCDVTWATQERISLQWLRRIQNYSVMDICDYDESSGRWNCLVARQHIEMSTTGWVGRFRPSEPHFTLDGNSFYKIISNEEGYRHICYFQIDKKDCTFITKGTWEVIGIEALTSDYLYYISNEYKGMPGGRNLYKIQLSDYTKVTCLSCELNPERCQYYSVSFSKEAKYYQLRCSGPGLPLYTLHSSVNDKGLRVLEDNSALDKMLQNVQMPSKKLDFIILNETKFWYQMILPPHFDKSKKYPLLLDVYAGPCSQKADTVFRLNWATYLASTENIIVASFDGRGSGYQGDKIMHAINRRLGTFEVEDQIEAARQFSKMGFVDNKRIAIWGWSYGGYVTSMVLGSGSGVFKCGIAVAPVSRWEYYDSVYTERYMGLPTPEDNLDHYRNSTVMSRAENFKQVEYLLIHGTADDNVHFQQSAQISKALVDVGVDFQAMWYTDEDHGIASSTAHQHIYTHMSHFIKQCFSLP

Vmax/Km | SMILES
1.3 | CC(C)[C@H](N)C(=O)N1CCC[C@H]1C(=O)Nc1ccc2ncccc2c1
0.5 | COc1cccc2c1C(=O)c1c(O)c3c(c(O)c1C2=O)C[C@@](O)(C(=O)CO)C[C@@H]3O[C@H]1C[C@H](NC(=O)[C@@H]2CCCN2C(=O)[C@@H](N)C(C)C)[C@H](O)[C@H](C)O1
0.13 | N[C@@H](CC(=O)O)C(=O)N1CCC[C@H]1C(=O)Nc1ccc2ncccc2c1

SMILES | Vmax/Km
CC(C)[C@H](N)C(=O)N1CCC[C@H]1C(=O)N[C@H](C(=O)N1CCC[C@H]1C(=O)Nc1ncnc2c1ncn2[C@@H]1O[C@H](CO)[C@@H](O)[C@@H]1O)C(C)C (H-VPVP-X2) | 0.18
